Measured values reported in US20250268429A1, “Fluid Dispenser With Automatic Fluid Composition Adjustment” (OP-HYGIENE IP GmbH, priority 2024, published 2025).

Test system: Bacillus subtilis spores
Assay: in vitro killing of Bacillus subtilis spores by foam compositions (LOG reduction factor, CFU count)
Type: cell-based
Conditions: conclusion from Table 3
Procedure: The compositions of Foams 1 to 6 are the same as in Table 1. Foam 7 contained 70% isopropanol.
In the in vitro experiments summarized above, the following method was used: the bacterial culture was serially diluted (1 LOG); the tested foam was added to 50 μL of the diluted solution and stirred for 15 seconds; the resulting mixture was transferred to an agar plate and incubated for 24 hours before counting the bacterial colonies (CFUs). The LOG reduction factor was calculated as the LOG bacteria before treatment minus the LOG bacteria after treatment.

CC(C)O [Isopropanol, isopropanol]
effectiveness at killing Bacillus subtilis spores (in words): not effective
